Source: ChEMBL document CHEMBL3769368, “Semi-synthesis and anti-tumor evaluation of novel 25-hydroxyprotopanaxadiol derivatives as apoptosis inducing agents” (Medchemcomm, 2015)

What was measured:
[1] = Antiproliferative activity against human BGC823 cells after 48 hrs by MTT assay; type: functional, cell-based; conditions: BGC-823, 48 h
[2] = Antiproliferative activity against human DU145 cells after 48 hrs by MTT assay; type: functional, cell-based; conditions: DU-145, 48 h
[3] = Antiproliferative activity against human PC3 cells after 48 hrs by MTT assay; type: functional, cell-based; conditions: PC-3, 48 h
[4] = Cytotoxicity against human IOSE-144 cells after 48 hrs by MTT assay; type: cell-based; conditions: IOSE-144, 48 h
MDA-MB-231 = assay: Antiproliferative activity against human MDA-MB-231 cells after 48 hrs by MTT assay; type: functional, cell-based; conditions: MDA-MB-231, 48 h
[5] = Antiproliferative activity against human alpha-2 cells after 48 hrs by MTT assay; type: functional, cell-based

| IC50 (MDA-MB-231) [µM] | Structure (SMILES) | IC50 [1] [µM] | IC50 [2] [µM] | IC50 [3] [µM] | IC50 [4] [µM] | IC50 [5] [µM] |
| --- | --- | --- | --- | --- | --- | --- |
| 89 | CC(C)(O)CCC[C@@](C)(O)[C@H]1CC[C@]2(C)[C@@H]1[C@H](OC(=O)[C@H](CCC(=O)OCc1ccccc1)NC(=O)OC(C)(C)C)C[C@@H]1[C@@]3(C)CC[C@H](OC(=O)[C@H](CCC(=O)OCc4ccccc4)NC(=O)OC(C)(C)C)C(C)(C)[C@@H]3CC[C@]12C | > 100 | > 100 | > 100 | > 100 | 61 |
| 17 | CC(C)(O)CCC[C@@](C)(O)[C@H]1CC[C@]2(C)[C@@H]1[C@H](O)C[C@@H]1[C@@]3(C)CC[C@H](OC(=O)[C@H](Cc4cnc[nH]4)NC(=O)OC(C)(C)C)C(C)(C)[C@@H]3CC[C@]12C | 27 | 21 | 28 | > 100 | 20 |
| 19 | CC(C)(O)CCC[C@@](C)(O)[C@H]1CC[C@]2(C)[C@@H]1[C@H](O)C[C@@H]1[C@@]3(C)CC[C@H](OC(=O)[C@H](Cc4ccc(O)cc4)NC(=O)OC(C)(C)C)C(C)(C)[C@@H]3CC[C@]12C | 37 | 34 | 25 | > 100 | 33 |
| > 100 | CC[C@H](C)[C@H](NC(=O)OC(C)(C)C)C(=O)O[C@H]1CC[C@]2(C)[C@H]3C[C@@H](OC(=O)[C@@H](NC(=O)OC(C)(C)C)[C@@H](C)CC)[C@@H]4[C@@H]([C@](C)(O)CCCC(C)(C)O)CC[C@@]4(C)[C@]3(C)CC[C@H]2C1(C)C | > 100 | > 100 | > 100 | > 100 | 69 |
| 6.4 | CC[C@H](C)[C@H](N)C(=O)O[C@H]1CC[C@]2(C)[C@H]3C[C@@H](O)[C@@H]4[C@@H]([C@](C)(O)CCCC(C)(C)O)CC[C@@]4(C)[C@]3(C)CC[C@H]2C1(C)C | 10 | 14 | 8.4 | > 100 | 17 |
| 18 | CC[C@H](C)[C@H](NC(=O)OC(C)(C)C)C(=O)O[C@H]1CC[C@]2(C)[C@H]3C[C@@H](O)[C@@H]4[C@@H]([C@](C)(O)CCCC(C)(C)O)CC[C@@]4(C)[C@]3(C)CC[C@H]2C1(C)C | 22 | 58 | 24 | > 100 | 36 |
| 79 | CC(C)(O)CCC[C@@](C)(O)[C@H]1CC[C@]2(C)[C@@H]1[C@H](OC(=O)[C@H](CCC(=O)OCc1ccccc1)NC(=O)OC(C)(C)C)C[C@@H]1[C@@]3(C)CC[C@H](O)C(C)(C)[C@@H]3CC[C@]12C | > 100 | > 100 | > 100 | > 100 | 85 |
| 17 | C[C@H](NC(=O)OC(C)(C)C)C(=O)O[C@H]1CC[C@]2(C)[C@H]3C[C@@H](O)[C@@H]4[C@@H]([C@](C)(O)CCCC(C)(C)O)CC[C@@]4(C)[C@]3(C)CC[C@H]2C1(C)C | 18 | 23 | 22 | > 100 | 24 |
| 80 | C[C@H](NC(=O)OC(C)(C)C)C(=O)O[C@H]1CC[C@]2(C)[C@H]3C[C@@H](OC(=O)[C@H](C)NC(=O)OC(C)(C)C)[C@@H]4[C@@H]([C@](C)(O)CCCC(C)(C)O)CC[C@@]4(C)[C@]3(C)CC[C@H]2C1(C)C | 81 | > 100 | > 100 | > 100 | 57 |
| > 100 | CC(C)C[C@H](NC(=O)OC(C)(C)C)C(=O)O[C@H]1CC[C@]2(C)[C@H]3C[C@@H](OC(=O)[C@H](CC(C)C)NC(=O)OC(C)(C)C)[C@@H]4[C@@H]([C@](C)(O)CCCC(C)(C)O)CC[C@@]4(C)[C@]3(C)CC[C@H]2C1(C)C | > 100 | > 100 | > 100 | > 100 | 73 |
